Measurements published in publication PMC5814047, “Peptidic inhibitors of insulin-degrading enzyme with potential for dermatological applications discovered via phage display” (PLoS ONE, 2018).
Several values for one entry are separate records, joined by “and”; a condition that tells them apart may be missing. Equal values may be shown once. Bridge positions count the residues as written; N and C are the ends. Peptide text beside a SMILES is read from it.

What was measured:
Type in all cases: biochemical
IDE = biological target: T1, IDE (Homo sapiens, UniProt P14735); assay: IDE activity assay, FAßB (amyloid ß-protein) degradation (fluorescence polarization)
T1 construct: made in house; host or cells: bacteria
T1 sequence (P14735 1-1019): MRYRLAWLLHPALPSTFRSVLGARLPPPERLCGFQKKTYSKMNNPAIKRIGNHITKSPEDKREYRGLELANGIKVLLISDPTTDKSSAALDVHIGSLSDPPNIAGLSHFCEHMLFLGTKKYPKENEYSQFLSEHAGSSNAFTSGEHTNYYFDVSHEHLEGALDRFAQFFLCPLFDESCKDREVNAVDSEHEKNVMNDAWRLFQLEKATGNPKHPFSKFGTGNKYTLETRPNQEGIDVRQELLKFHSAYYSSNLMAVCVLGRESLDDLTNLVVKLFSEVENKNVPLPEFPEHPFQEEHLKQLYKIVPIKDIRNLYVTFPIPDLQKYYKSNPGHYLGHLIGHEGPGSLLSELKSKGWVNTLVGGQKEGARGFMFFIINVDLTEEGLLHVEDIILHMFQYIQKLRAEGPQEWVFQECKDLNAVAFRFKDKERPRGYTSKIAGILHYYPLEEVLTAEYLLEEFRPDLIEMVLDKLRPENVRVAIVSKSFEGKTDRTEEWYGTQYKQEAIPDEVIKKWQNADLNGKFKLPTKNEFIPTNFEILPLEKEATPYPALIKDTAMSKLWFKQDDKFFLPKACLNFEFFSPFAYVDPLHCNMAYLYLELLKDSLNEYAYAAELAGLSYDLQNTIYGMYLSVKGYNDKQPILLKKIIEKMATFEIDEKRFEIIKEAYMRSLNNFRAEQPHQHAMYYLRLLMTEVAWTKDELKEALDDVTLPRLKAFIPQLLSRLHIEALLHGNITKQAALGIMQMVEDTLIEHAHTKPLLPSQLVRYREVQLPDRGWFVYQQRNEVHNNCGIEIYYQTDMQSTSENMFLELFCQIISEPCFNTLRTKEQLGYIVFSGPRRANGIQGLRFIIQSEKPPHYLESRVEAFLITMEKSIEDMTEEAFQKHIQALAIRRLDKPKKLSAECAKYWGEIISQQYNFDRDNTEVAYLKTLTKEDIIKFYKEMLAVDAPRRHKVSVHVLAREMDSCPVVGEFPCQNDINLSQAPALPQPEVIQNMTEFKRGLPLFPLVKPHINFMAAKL
Experimental: Taken together with the potency of all peptides against insulin (Table 1), we concluded that P12-3A represented the best inhibitor for further studies, and a highly purified, deliberately cyclized version (Fig 3A) was synthesized. […] Based on its potency, stability and selectivity for IDE, P12-3A was selected for use in downstream assays.
(§1) IDE activity was quantified by monitoring the degradation of Mca-[…](Dnp) (FRET1, 5 μM), fluoresceinated and biotinylated amyloid ß-protein (FAßB; 500 nM) or recombinant human insulin (50 nM) in PBS supplemented with 0.05% BSA. FRET1 degradation was measured by changes in fluorescence (λex = 340 nm, λem = 420 nm); FAßB degradation was monitored by fluorescence polarization (λex = 488 nm, λem = 525 nm), as described; and insulin degradation was quantified by ELISA. In vitro activity assays incorporated recombinant human IDE (1 nM) purified from bacteria. For quantitation of insulin degradation in primary murine skin fibroblasts, cells (1 x 10^5/well) were plated in 96-well plates and maintained in DMEM supplemented with 10% fetal bovine serum (FBS), 2mM glutamine, penicillin and streptomycin. After addition of insulin (10 nM or 100 nM), samples of conditioned medium were removed daily and quickly frozen, then insulin levels were quantified in parallel by ELISA according to manufacturer’s recommendations (Crystal Chem, Downers Grove, IL, USA). Assessment of the activity of P12-3A against a variety of matrix-metalloproteases was conducted using the Matrix Metalloproteinase (MMP) Inhibitor Profiling Kit, Fluorometric RED (Enzo Life Sciences, Inc., Farmingdale, NY, USA) according to manufacturer’s recommendations using the broad-spectrum MMP inhibitor, NNGH, as a positive control.

MMP-7 = biological target: T2, MMP-7 (Homo sapiens, UniProt P09237); assay: MMP Inhibitor Profiling Kit, MMP-7; conditions: P12-3A 100 μM
T2 construct: purchased Enzo Life Sciences, Inc
T2 sequence (P09237 95-267): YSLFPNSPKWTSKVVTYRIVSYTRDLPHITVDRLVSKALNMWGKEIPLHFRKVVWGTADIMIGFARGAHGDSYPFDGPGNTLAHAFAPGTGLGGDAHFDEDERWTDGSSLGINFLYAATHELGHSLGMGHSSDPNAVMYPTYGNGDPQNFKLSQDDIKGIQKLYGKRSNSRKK
Experimental: as §1, with “control. […]” for “control.”

[1] = test system: multiple matrix-metalloproteases (MMPs); assay: Matrix Metalloproteinase (MMP) Inhibitor Profiling Kit, Fluorometric RED; set-up: % activity relative to DMSO-only controls, single runs / % activity relative to DMSO-only controls, Mean: concentration or dose not given beside the values; conditions: for % activity relative to DMSO-only controls, single runs: each run mean of duplicates
Experimental: as §1
Supplementary file pone.0193101.s004.tif: S4 Fig Selectivity of P12-3A for IDE vis-à-vis other proteases. Activity of P12-3A (100 μM) against (A) multiple matrix-metalloproteases (MMPs) and (B) multiple peptidases of different protease classes. […] Data are mean ± SD, n = 8–16 per group. P<0.05 by 2-tailed Student’s t-test. […] See Materials and Methods for details. NEP, neprilysin; mCatD, murine cathepsin D; hCatD, human cathepsin D. (TIF) Click here for additional data file.

remaining activity at 0.0005 µM (IDE; FAßB, P12-3A 0.0005 uM, Replicates 4-6, read-out: Percent Activity (normalized source data)): 103%
remaining activity at 0.0016 µM (IDE; FAßB, P12-3A 0.0016 uM, Replicates 4-6, read-out: Percent Activity (normalized source data)): 102%
remaining activity at 0.005 µM (IDE; FAßB, P12-3A 0.005 uM, Replicates 4-6, read-out: Percent Activity (normalized source data)): 103%
remaining activity at 0.016 µM (IDE; FAßB, P12-3A 0.016 uM, Replicates 4-6, read-out: Percent Activity (normalized source data)): 77.6%
remaining activity at 0.05 µM (IDE; FAßB, P12-3A 0.050 uM, Replicates 4-6, read-out: Percent Activity (normalized source data)): 88.7%
remaining activity at 0.12 µM (IDE; FAßB, P12-3A 0.12 uM, Replicates 1-3, read-out: Percent Activity (normalized source data)): 96.6%
remaining activity at 0.16 µM (IDE; FAßB, P12-3A 0.16 uM, Replicates 4-6, read-out: Percent Activity (normalized source data)): 93.1%
remaining activity at 0.24 µM (IDE; FAßB, P12-3A 0.24 uM, Replicates 1-3, read-out: Percent Activity (normalized source data)): 79.9%
remaining activity at 0.49 µM (IDE; FAßB, P12-3A 0.49 uM, Replicates 1-3, read-out: Percent Activity (normalized source data)): 73.7%
remaining activity at 0.5 µM (IDE; FAßB, P12-3A 0.50 uM, Replicates 4-6, read-out: Percent Activity (normalized source data)): 85.8%
remaining activity at 0.98 µM (IDE; FAßB, P12-3A 0.98 uM, Replicates 1-3, read-out: Percent Activity (normalized source data)): 66.9%
remaining activity at 1.6 µM (IDE; FAßB, P12-3A 1.6 uM, Replicates 4-6, read-out: Percent Activity (normalized source data)): 61.7%
remaining activity at 3.91 µM (IDE; FAßB, P12-3A 3.91 uM, Replicates 1-3, read-out: Percent Activity (normalized source data)): 48.4%
remaining activity at 5 µM (IDE; FAßB, P12-3A 5.0 uM, Replicates 4-6, read-out: Percent Activity (normalized source data)): 48.4%
remaining activity at 7.81 µM (IDE; FAßB, P12-3A 7.81 uM, Replicates 1-3, read-out: Percent Activity (normalized source data)): 43.4%
remaining activity at 15.6 µM (IDE; FAßB, P12-3A 15.6 uM, Replicates 1-3, read-out: Percent Activity (normalized source data)): 45.5%
remaining activity at 31.2 µM (IDE; FAßB, P12-3A 31.2 uM, Replicates 1-3, read-out: Percent Activity (normalized source data)): 38.5%
remaining activity at 62.5 µM (IDE; FAßB, P12-3A 62.5 uM, Replicates 1-3, read-out: Percent Activity (normalized source data)): 10.9%
remaining activity at 250 µM (IDE; FAßB, P12-3A 250 uM, Replicates 1-3, read-out: Percent Activity (normalized source data)): 9.54%
inhibition at 100 µM (MMP-7): ~18%
% activity relative to DMSO-only controls, Mean ([1]; MMP-1): 87%
% activity relative to DMSO-only controls, Mean ([1]; MMP-2): 101%
% activity relative to DMSO-only controls, Mean ([1]; MMP-3): 93%
% activity relative to DMSO-only controls, Mean ([1]; MMP-8): 114%
% activity relative to DMSO-only controls, Mean ([1]; MMP-9): 96%
% activity relative to DMSO-only controls, Mean ([1]; MMP-12): 89%
% activity relative to DMSO-only controls, Mean ([1]; MMP-13): 97%
% activity relative to DMSO-only controls, Mean ([1]; MMP-14): 117%
% activity relative to DMSO-only controls, Mean ([1]; MMP-19): 92%
Structure (SMILES): CC(C)C[C@H](NC(=O)[C@H](CO)NC(=O)[C@@H](N)CCC(N)=O)C(=O)N1CCC[C@H]1C(=O)N[C@@H](Cc1c[nH]c2ccccc12)C(=O)N[C@H]1CSSC[C@@H](C(=O)N[C@H](C(=O)N[C@H](C(N)=O)[C@@H](C)O)C(C)C)NC(=O)[C@H](Cc2c[nH]cn2)NC(=O)[C@@H]2CCCN2C(=O)[C@H](Cc2ccc(O)cc2)NC1=O [P12-3A] (H-QSLPWCYPHCVT-NH2; disulfide 6-10 (inferred))
inhibition of IDE in the selectivity panel (IDE; P12-3A 100 μM, S4 Fig): significant inhibition was observed exclusively for IDE
% activity relative to DMSO-only controls, single runs ([1]; MMP-1): 105.8321% and 102.1980% and 83.6377% and 95.1040% and 96.8615% and 66.9344% and 67.7846% and 75.7623%
% activity relative to DMSO-only controls, single runs ([1]; MMP-2): 134.1641% and 93.5356% and 119.9423% and 88.3713% and 112.6968% and 77.2842% and 100.8622% and 77.2868%
% activity relative to DMSO-only controls, single runs ([1]; MMP-3): 94.6432% and 93.2955% and 89.9170% and 91.8916% and 91.6457% and 97.0044% and 92.2721% and 90.5895%
% activity relative to DMSO-only controls, single runs ([1]; MMP-8): 99.7304% and 123.9354% and 116.1961% and 104.6766% and 117.7573% and 98.6189% and 113.4567% and 134.2719%
% activity relative to DMSO-only controls, single runs ([1]; MMP-9): 99.3059% and 91.4690% and 98.9883% and 93.1451% and 94.2109% and 106.2066% and 100.0306% and 85.1586%
% activity relative to DMSO-only controls, single runs ([1]; MMP-12): 81.7387% and 84.5842% and 96.0954% and 81.6283% and 94.7460% and 96.1245% and 93.1866% and 82.8317%
% activity relative to DMSO-only controls, single runs ([1]; MMP-13): 85.9593% and 124.8564% and 91.0861% and 131.0115% and 78.1511% and 84.2743% and 87.8510% and 91.4553%
% activity relative to DMSO-only controls, single runs ([1]; MMP-14): 110.7407% and 115.7751% and 123.1998% and 129.5171% and 110.1580% and 106.8971% and 114.7013% and 125.4828%
% activity relative to DMSO-only controls, single runs ([1]; MMP-19): 98.6000% and 87.1925% and 92.0753% and 96.2890% and 86.4215% and 92.6495% and 89.4846% and 96.8071%
